Columns and labels:
slow anion channels = experiment: Whole-cell patch-clamp of guard cell protoplasts, anion channel activation; assay type: cell-based, Vicia faba
Method: Anion channel activation was measured in guard cell protoplasts. Whole-cell patch-clamp experiments were performed according to established methods. Pipette solution contained 100 mM KCl, 50 mM tetramethylammonium, 2 mM MgCl, 6.7 mM EGTA-(Tris)2, 3.35 mM CaCl2, 10 mM HEPES, pH=7.1 (Tris) and 5 mM Mg-ATP. Bath solution contained 40 mM CaCl2, 2 mM MgCl and 10 mM MES-Tris pH5.6. Osmolalities were adjusted with sorbitol to 500 mosmol/kg (in the pipette) or 470 mosmol/kg (in the bath). Protein kinase inhibitor K-252a (Calbiochem) was prepared as a stock solution at 2 mM in dimethyl sulfoxide (DMSO).

native AAPK = experiment: Native AAPK activity; assay type: biochemical, Vicia faba
Method: Isolation and Identification of ABA-Activated Protein Kinase (AAPK). Guard cell protoplasts (2×10^6; 99.6% pure) were prepared from Vicia faba. Protoplasts were treated with either darkness, ABA or elevated CO2 concentrations prior to protein isolation. Protoplast proteins were extracted and subjected to 2-dimensional gel electrophoresis. Separation was via 12% SDS-polyacrylamide gel electrophoresis (SDS-PAGE). Kinase autophosphorylation activity of subsequently renatured proteins was detected by established methods.

[1] = system: guard cells (stomatal aperture); experiment: Stomatal closure in abaxial epidermal peels of transformed V. faba leaves; assay type: cell-based, Vicia faba; conditions: for change in half aperture of stomata, closure: 1 h, illuminated
Method: (§1) Analysis of AAPK mutants for stomatal aperture changes and anion channel activation. V. faba leaves were biolistically transformed with the pGFP, pAAPK-GFP, or pAAPK(K43A)-GFP constructs. The V. faba leaves were bombarded with gold particles (Bio-Rad) coated with one of the DNA constructs. Bombardment was via a particle delivery system 1000/He (Bio-Rad) as described. (J. Marc et al., 1998, Plant Cell 10:1927).
(§2) Abaxial epidermal peels were isolated and the transformed guard cells were assayed for ABA-mediated prevention of stomatal opening and for stomatal closure stimulated by ABA, CO2 or darkness. Conditions were as in Assman, S., and Baskin, T. (1998) J. Exp. Bot. 49:163 except that the incubation solution was 10 mM MES, 30 mM KCl, pH=6.1, with or without 50 μM {±} cis,trans-ABA. For closure experiments, the transformed leaves were illuminated with 0.20 mmol m^−2 s^−1 white light for 2.5 h to open the stomata. The abaxial epidermal peels were placed in incubation solution and treated with either darkness, 25 μM {±} cis,trans-ABA or with 700 ppm CO2 for 1 h.

[2] = system: guard cells (stomatal aperture); experiment: ABA-mediated prevention of stomatal opening in abaxial epidermal peels of transformed V. faba leaves; assay type: cell-based, Vicia faba; conditions: ABA 50 μM, illuminated
Method: as §1, §2

AAPK = experiment: Kinase activity of immunoprecipitated GFP fusion proteins with histone III-S as substrate; assay type: biochemical, Vicia faba; conditions: cells transfected with pAAPK-GFP; protoplasts treated with ABA prior to isolation of the proteins
From the text: Analysis of AAPK mutants and hybrid expression DNA constructs for ABA-activated protein kinase activity. 1.5×10^7 V. faba guard cell protoplasts were transfected with either the vector, pGFP, or the constructs, pAAPK-GFP or pAAPK(K43A)-GFP by polyethylene glycol (PEG)-mediated DNA transfer. After uptake and expression, protoplasts were lysed and recombinant protein was immunoprecipitated with anti-GFP peptide antibodies (Clontech) and protein A-Sepharose CL-4B (Amersham Pharmacia Biotech). Immunoprecipitated proteins were assayed for kinase activity using histone III-S (Sigma) as substrate.

[3] = AAPK(K43A)-GFP transformed guard cells, ABA 25 μM or CO2 700 ppm
[4] = AAPK(K43A)-GFP, untransformed guard cells, ABA 25 μM or CO2 700 ppm

| Compound | effect on ABA regulation of anion channels (slow anion channels; untransformed cells) | effect on native AAPK activity (native AAPK) | effect on ABA-induced stomatal closure ([1]; kinase inhibitor, untransformed cells) | change in half aperture of stomata, opening ([2]; AAPK(K43A)-GFP transformed guard cells) | change in half aperture of stomata, opening ([2]; AAPK(K43A)-GFP, untransformed guard cells) | change in half aperture of stomata, opening ([2]; AAPK-GFP column, untransformed guard cells) | change in half aperture of stomata, opening ([2]; AAPK-GFP transformed guard cells) | change in half aperture of stomata, opening ([2]; GFP column, untransformed guard cells) | change in half aperture of stomata, opening ([2]; GFP transformed guard cells) | effect on slow anion channels (slow anion channels; V. faba guard cells) | effect on anion current magnitude (slow anion channels; whole-cell configuration) | change in half aperture of stomata, closure [1, 3] | change in half aperture of stomata, closure [1, 4] | change in half aperture of stomata, closure ([1]; AAPK-GFP column, untransformed guard cells, ABA 25 μM) | change in half aperture of stomata, closure ([1]; AAPK-GFP transformed guard cells, ABA 25 μM) | change in half aperture of stomata, closure ([1]; GFP column, untransformed guard cells, ABA 25 μM) | change in half aperture of stomata, closure ([1]; GFP transformed guard cells, ABA 25 μM) | histone phosphorylation activity of immunoprecipitate after ABA treatment of protoplasts (AAPK) |
| --- | --- | --- | --- | --- | --- | --- | --- | --- | --- | --- | --- | --- | --- | --- | --- | --- | --- | --- |
| COC(=O)[C@@]1(O)C[C@H]2O[C@]1(C)n1c3ccccc3c3c4c(c5c6ccccc6n2c5c31)C(=O)NC4 [K-252a] | inhibits | inhibits | inhibits |  |  |  |  |  |  |  |  |  |  |  |  |  |  |  |
| CC1=CC(=O)CC(C)(C)C1(O)/C=C/C(C)=C\C(=O)O (racemic) [ABA, abscisic acid] |  |  |  | 0.42 ± 0.17 (46) micrometers | 0.44 ± 0.15 (46) micrometers | 0.41 ± 0.28 (36) micrometers | 0.43 ± 0.22 (36) micrometers | 0.45 ± 0.27 (36) micrometers | 0.42 ± 0.22 (36) micrometers | activated | increased | −0.36 ± 0.26 (56) micrometers | −2.55 ± 0.21 (56) micrometers | −2.58 ± 0.24 (36) micrometers | −2.59 ± 0.30 (36) micrometers | −2.54 ± 0.35 (36) micrometers | −2.52 ± 0.29 (36) micrometers | significantly enhanced |
| O=C=O [CO2] |  |  |  |  |  |  |  |  |  |  |  | −2.23 ± 0.44 (36) micrometers | −2.31 ± 0.46 (36) micrometers |  |  |  |  |  |
